From patent US9326513B2, “Fungicidal compositions” (Syngenta Participations AG, priority 2011, dated 2016) come the findings set out here.

The subject of test [1] is Phakopsora pachyrhizi (triazole tolerant soybeanrust strain). In words: Phakopsora pachyrhizi on soybean, preventive treatment. The class given is in vivo. The conditions noted are these: solo, soybean leaf discs, 1 day preventive, 11 days after application.
In test [2] the test system is Septoria tritici. In words: Septoria tritici (leaf blotch), YBG microtiter plate, photometric growth inhibition after 6 days. In kind it is cell-based. The conditions noted are these: Zymoseptoria tritici, 144 h, solo. The text has this:
(§1) In the following Tables ‘Activity (%)’ means the assessed experimental activity (% disease control in this test when compared to untreated control leaf disks under the same conditions, which show extensive disease development) and “P” is the expected value calculated (expected) activity according to the COLBY formula (see above). The column headed ‘S?’ indicates whether or not synergy was observed, with ‘y’ meaning that synergy was observed.
Septoria tritici (Leaf Blotch):
After placing solutions of the test compounds (containing 0.2% DMSO) into a microtiter plate (96-well format), an equal amount of the nutrient broth (YBG) was added to each of the well. Finally the fungal spore solution was added. The test plates were incubated at 20° C. The inhibition of growth was determined photometrically after 6 days and the activity calculated in relation to untreated control.

Test [3] has as its system Puccinia recondita f. sp. tritici. As to the kind of experiment: Puccinia recondita f. sp. tritici / wheat / leaf disc curative (brown rust). The following applies: foliar, compared to untreated control leaf disks, read-out: disease control. In kind it is in vivo. The protocol: Puccinia recondita f. sp. tritici/Wheat/Leaf Disc Curative (Brown Rust) Wheat leaf segments cv. Kanzler are placed on agar in multiwell plates (24-well format). The leaf segments are inoculated with a spore suspension of the fungus. Plates were stored in darkness at 19° C. and 75% rh. The formulated test compound diluted in water was applied 1 day after inoculation.

The test system of test [4] is Blumeria graminis f. sp. tritici (Erysiphe graminis f. sp. tritici). In words: Blumeria graminis f. sp. tritici / wheat / leaf disc preventative (powdery mildew on wheat). In kind it is in vivo. The following applies: foliar, compared to untreated control leaf disks, read-out: disease control. Put shortly:
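Preventative leaf-disc test: compound (200 ppm) was sprayed onto cv. Kanzler wheat segments, which were dusted with conidia from infected plants 1 day after application. After incubation at 20° C and 60% rh, disease control relative to untreated segments was rated 6-8 days after application.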

In test [5] the test system is Septoria tritici. In words: Septoria tritici on wheat, preventive treatment. The class given is in vivo. The conditions noted are these: solo, wheat Riband, 1 day preventive, 18 days after application.
The test system of test [6] is Puccinia recondita f. sp. tritici. In words: Puccinia recondita f. sp. tritici / wheat / leaf disc preventative (brown rust). The following applies: foliar, compared to untreated control leaf disks, read-out: disease control. In kind it is in vivo. The text has this: Puccinia recondita f. sp. tritici/Wheat/Leaf Disc Preventative (Brown Rust) Wheat leaf segments cv. Kanzler were placed on agar in multiwell plates (24-well format) and sprayed with the formulated test compound diluted in water. The leaf disks were inoculated with a spore suspension of the fungus 1 day after application.

For test [7], the system named is Fusarium graminearum and Fusarium culmorum. In kind it is in vivo. The conditions noted are these: solo, wheat, 1 day preventive, 9 days after application.
The test system of another test is Pythium ultimum. In words: Pythium ultimum (damping off), PDB microtiter plate, visual after 48 hrs. The class given is cell-based. The conditions noted are these: solo, rate 0.03125 ppm.
The next test deals with Botrytis cinerea. As to the kind of experiment: Botrytis cinerea (gray mould), PDB microtiter plate, visual after 72 hrs. In kind it is cell-based. The conditions noted are these: alone.
Test [8] deals with Monographella nivalis (syn. Microdochium nivale, Fusarium nivale). In words: Monographella nivalis (snow mould, foot rot of cereals), PDB microtiter plate, visual after 72 hrs. The class given is cell-based. The conditions noted are these: Monographella nivalis.
A further test concerns Gaeumannomvces graminis. In words: Gaeumannomvces graminis (take-all of cereals), PDB microtiter plate, visual after 48 hrs. The following applies: solo. The class given is cell-based. From the text: In the following Tables ‘Activity (%)’ means the assessed experimental activity (% disease control in this test when compared to untreated control leaf disks under the same conditions, which show extensive disease development) and “P” is the expected value calculated (expected) activity according to the COLBY formula (see above). The column headed ‘S?’ indicates whether or not synergy was observed, with ‘y’ meaning that synergy was observed. Gaeumannomvces graminis (Take-all of Cereals) Mycelial fragments of the fungus from cryogenic storage were directly mixed into nutrient broth (PDB potato dextrose broth). After placing a (DMSO) solution of the test compounds into a microtiter plate (96-well format) the nutrient broth containing the fungal spores was added.

Another test concerns Pyrenophora teres. In words: Pyrenophora teres / barley / leaf disc preventative (net blotch). The class given is in vivo. The following applies: foliar, compared to untreated control leaf disks, read-out: disease control. The text has this: Pyrenophora teres/Barley/Leaf Disc Preventative (Net Blotch) Barley leaf segments cv. Hasso were placed on agar in a multiwell plate (24-well format) and sprayed with the formulated test compound diluted in water. The leaf segments were inoculated with a spore suspension of the fungus 2 days after application.

Another test has as its system Sclerotinia sclerotiorum. In words: Sclerotinia sclerotiorum on oilseed rape, preventive treatment. In kind it is in vivo. The conditions noted are these: solo, 1 day preventive, 11 days after application.
Excerpt: as §1
Sclerotinia sclerotiorum on Oilseed Rape, Preventive Treatment
The compound activity was tested under 1 day preventive conditions. Oilseed rape plants with 3 unfolded leafs were sprayed with a track sprayer and 200 I/ha spray volume with the test compounds, either solo or in tankmix as shown in the table below.
1 day after application the plants were infested with a solution of Sclerotinia sclerotiorum mycelium. The plants were placed under plastic hoods and high humidity conditions in a climate chamber at 14 h day/10 h night cycle and 15° C. Disease infestation was evaluated visually 11 days after application and average activity calculated in relation to disease severity on untreated check.

Test [9] concerns Septoria tritici. In words: Septoria tritici (leaf blotch), PDB microtiter plate, visual after 72 hrs. In kind it is cell-based. The conditions noted are these: Zymoseptoria tritici, single compound, 0.0125 ppm.

Where “and” joins values, the source holds several entries; their conditions need not be identical. Identical values can stand only once. Like-named read-outs stand apart in the source and are kept apart here. Some results are limits rather than exact numbers.

For `CC(C1CC1)C(O)(Cn1cncn1)c1ccc(Cl)cc1` (centres unmarked) [Cyproconazole], the results for the Activity in test [1] (rate 0.5 g ai/ha) and in test [1] (rate 2 g ai/ha) were 38% and 53%, respectively. Also, the inhibition of growth at 0.25 ppm in the test with Septoria tritici [2] (rate 0.25 ppm) amounted to 0%. For the same molecule, the inhibition of growth at 0.5 ppm in the test with Septoria tritici [2] (rate 0.5 ppm) is 64%. Moreover, the inhibition of growth at 1 ppm in the test on Septoria tritici [2] (rate 1 ppm) was 84%. For the same molecule, the inhibition of growth at 1.25 ppm in the test with Septoria tritici [2] (rate 1.25 ppm) worked out at 39%. Moreover, in the test on Septoria tritici [2] (rate 2.5 ppm), the inhibition of growth at 2.5 ppm came to 76%.
Turning to `CCN(C)/C=N/c1cc(Br)c(OCc2ccccc2C)nc1C` [Q.151], the pest or weed control at 200 ppm in test [3], in test [4] and in test [6] was ≥ 50% each time. Also, the Activity is 0% in the test on Septoria tritici [5] (1 g a.i./ha); 0% and 4% in the test with Septoria tritici [5] (3 g a.i./ha); 0% with Septoria tritici [5] (9 g a.i./ha); 43% with Septoria tritici [5] (81 g a.i./ha); 3% in [7] (200 g a.i./ha).
Consider `COCC(=O)N(c1c(C)cccc1C)[C@H](C)C(=O)OC` [Mefenoxam], for which the “Activity (%)” value in the test on Pythium ultimum is listed as 50%.
On to `Cn1cc(C(=O)Nc2cccc3c2C2CCC3C2=C(Cl)Cl)c(C(F)F)n1` (centres unmarked) [(V), N-[9-(dichloromethylene)-1,2,3,4-tetrahydro-1,4-methanonaphthalen-5-yl]-3-(difluoromethyl)-1-methyl-1H-pyrazole-4-carboxamide, reference compound], for which the inhibition at 0.015625 ppm is 20% in the test on Botrytis cinerea (Botrytis cinerea, rate 0.015625 ppm) and 0% in the test with Gaeumannomvces graminis (rate 0.015625 ppm). For the same molecule, the inhibition at 0.03125 ppm was determined as 50% with Botrytis cinerea (Botrytis cinerea, rate 0.03125 ppm, read-out: Activity (%)); 0% in test [8] (applied alone, 0.03125 ppm); 0% in test [8] (applied alone, rate 0.03125 ppm); 20% in the test with Gaeumannomvces graminis (rate 0.03125 ppm). In addition, the inhibition at 0.0625 ppm with Botrytis cinerea (Botrytis cinerea, rate 0.0625 ppm, read-out: Activity (%)) was 70%; in [8] (applied alone, 0.0625 ppm), 50%; in [8] (applied alone, rate 0.0625 ppm), 50%; with Gaeumannomvces graminis (rate 0.0625 ppm) it was 70%. Further, the inhibition at 0.125 ppm in the test on Botrytis cinerea (Botrytis cinerea, rate 0.125 ppm) amounted to 70%; in test [8] (applied alone, 0.125 ppm) it was 70%.
As for `CCN(C)/C=N/c1cc(Br)c(OC2CC=CC2)nc1C` [Q.063], the pest or weed control at 200 ppm (in [3]; in test [4]; with Pyrenophora teres; in test [6]) was ≥ 50% in each case. Also, the Activity in test [1] (rate 0.5 g ai/ha) and in test [1] (rate 2 g ai/ha) was 0% in each case.
`O=C(Nc1ccccc1-c1ccc(Cl)cc1)c1cccnc1Cl` [Boscalid]: the figures for the Activity in the test on Sclerotinia sclerotiorum (rate 50 g a.i./ha) and in the test with Sclerotinia sclerotiorum (rate 100 g a.i./ha) were 8% and 25%, respectively.
Turning to `OC(Cc1ccccc1Cl)(Cn1nc[nH]c1=S)C1(Cl)CC1` (centres unmarked) [Prothioconazole], the inhibition at 0.00625 ppm was 0% with Botrytis cinerea (Botrytis cinerea, rate 0.00625 ppm) and 0% in [8] (applied alone, rate 0.00625 ppm). The inhibition at 0.0125 ppm with Botrytis cinerea (Botrytis cinerea, rate 0.0125 ppm) worked out at 0%; in test [8] (applied alone, 0.0125 ppm), 0%; in [8] (applied alone, rate 0.0125 ppm), 0%; in test [8] (single compound, rate 0.0125 ppm), 0%; in the test on Septoria tritici [9] it was 70%. Further, in the test with Botrytis cinerea (Botrytis cinerea, rate 0.025 ppm), the inhibition at 0.025 ppm worked out at 0%. Moreover, in the test on Botrytis cinerea (Botrytis cinerea, rate 0.05 ppm), the inhibition at 0.05 ppm was 50%. Besides, the “Activity (%)” value with Botrytis cinerea (rate 0.05 ppm) came out at 70%. This molecule also came in with an inhibition at 0.0015625 ppm in test [8] (applied alone, rate 0.0015625 ppm) of 0%. This molecule had an inhibition at 0.003125 ppm in [8] (applied alone, rate 0.003125 ppm) of 0%. Also, the Activity in test [7] (50 g a.i./ha) was determined as 55%. In addition, in the test with Septoria tritici [2] (rate 0.01953125 ppm), the inhibition of growth at 0.0195312 ppm stood at 69%. Further, the inhibition of growth at 0.03125 ppm in the test on Septoria tritici [2] (rate 0.03125 ppm, read-out: Activity) was 9%. The inhibition of growth at 0.0390625 ppm with Septoria tritici [2] (rate 0.0390625 ppm) amounted to 63%. Besides, the inhibition of growth at 0.0625 ppm with Septoria tritici [2] (rate 0.0625 ppm) was found to be 63%.
